Test results taken from paper PMC8042380, “Brusatol Derivative–34 Attenuates Allergic Airway Inflammation Via Inhibition of the Spleen Tyrosine Kinase Pathway” (Frontiers in Pharmacology, 2021).

Target: Spleen tyrosine kinase (Syk) (Homo sapiens, UniProt P43405)
Assay: ADP-Glo kinase assay with purified active Syk (Promega Syk Kinase Enzyme System V3801), Poly E4Y1 substrate, ATP
Assay type: biochemical

COC(=O)[C@@]12OC[C@@]34C(CC5C(C)=C(OC(=O)CCC(=O)OCCCCOc6no[n+]([O-])c6S(=O)(=O)c6ccccc6)C(=O)C[C@]5(C)C3[C@@H](O)[C@@H]1O)OC(=O)[C@H](OC(=O)C=C(C)C)C42 (stereo partly shown) [Bru-34, Brusatol derivative-34]
IC50: 540 nM
